Assay results reported in ChEMBL document CHEMBL3885861, “Open TG-GATES”.

Organism: Rattus norvegicus
Experiment: Open TG-GATES - Regimen: Daily Repeat
Assay type: toxicity, organism-based, Sprague-Dawley
Set-up: regimen Daily Repeat, gender Male, age 6 weeks
Conditions: in vivo, po, 100 mg/kg, route gavage, dose level Low; for APTT / Bas / Eos / Fbg / Hb / Ht / Lym / MCH / MCHC / MCV / Mono / Neu / PT / Plat / RBC / Ret / WBC: tissue Blood; for KIDNEY_L / KIDNEY_R / KIDNEY_TOTAL: tissue Kidney; for LIVER: tissue Liver; for A/G / ALP / ALT / AST / BUN / CRE / Ca / Cl / DBIL / GLC / IP / K / LDH / Na / PL / RALB / TBIL / TC / TG / TP / gamma-GTP: tissue Plasma

O=C(O)c1cc(/N=N/c2ccc(S(=O)(=O)Nc3ccccn3)cc2)ccc1O [SULFASALAZINE]
TERMINAL_BW (72 h, time 3 day): 236.6 g
APTT (72 h, time 3 day): 18.4 s
Bas (72 h, time 3 day): 0%
Eos (72 h, time 3 day): 1%
Fbg (72 h, time 3 day): 226.6 mg/dL
Hb (72 h, time 3 day): 13.6 g/dL
Ht (72 h, time 3 day): 39.7%
Lym (72 h, time 3 day): 79.8%
MCH (72 h, time 3 day): 21.5 pg
MCHC (72 h, time 3 day): 34.3%
MCV (72 h, time 3 day): 62.6 fL
Mono (72 h, time 3 day): 3.2%
Neu (72 h, time 3 day): 14.4%
PT (72 h, time 3 day): 12.6 s
Plat (72 h, time 3 day): 129.7 x10_4/uL
RBC (72 h, time 3 day): 634.2 x10_4/ul
Ret (72 h, time 3 day): 6.4%
WBC (72 h, time 3 day): 114.1 x10_2/uL
KIDNEY_L (72 h, time 3 day): 1 g
KIDNEY_R (72 h, time 3 day): 1 g
KIDNEY_TOTAL (72 h, time 3 day): 2 g
LIVER (72 h, time 3 day): 10.9 g
A/G (72 h, time 3 day): 1.5
ALP (72 h, time 3 day): 979.2 IU/L
ALT (72 h, time 3 day): 44.4 IU/L
AST (72 h, time 3 day): 86.8 IU/L
BUN (72 h, time 3 day): 16.4 mg/dL
CRE (72 h, time 3 day): 0.4 mg/dL
Ca (72 h, time 3 day): 10.9 mg/dL
Cl (72 h, time 3 day): 103 meq/L
DBIL (72 h, time 3 day): 0.09 mg/dL
GLC (72 h, time 3 day): 201 mg/dL
IP (72 h, time 3 day): 7.4 mg/dL
K (72 h, time 3 day): 4.2 meq/L
LDH (72 h, time 3 day): 286.8 IU/L
Na (72 h, time 3 day): 140.4 meq/L
PL (72 h, time 3 day): 154.6 mg/dL
RALB (72 h, time 3 day): 3.3 g/dL
TBIL (72 h, time 3 day): 0.1 mg/dL
TC (72 h, time 3 day): 76.8 mg/dL
TG (72 h, time 3 day): 83.4 mg/dL
TP (72 h, time 3 day): 5.6 g/dL
gamma-GTP (72 h, time 3 day): 1.4 IU/L
TERMINAL_BW ([…], time 7 day): 262.7 g
TERMINAL_BW ([…], time 14 day): 309.6 g
TERMINAL_BW ([…], time 28 day): 389.8 g
APTT ([…], time 7 day): 19.1 s
Bas ([…], time 7 day): 0%
Eos ([…], time 7 day): 1%
Fbg ([…], time 7 day): 216.2 mg/dL
Hb ([…], time 7 day): 13.8 g/dL
Ht ([…], time 7 day): 39.9%
Lym ([…], time 7 day): 82%
MCH ([…], time 7 day): 21.1 pg
MCHC ([…], time 7 day): 34.5%
MCV ([…], time 7 day): 61.3 fL
Mono ([…], time 7 day): 1.8%
Neu ([…], time 7 day): 13.6%
PT ([…], time 7 day): 12.5 s
Plat ([…], time 7 day): 116 x10_4/uL
RBC ([…], time 7 day): 651.8 x10_4/ul
Ret ([…], time 7 day): 5.1%
WBC ([…], time 7 day): 110 x10_2/uL
APTT ([…], time 14 day): 19.4 s
Bas ([…], time 14 day): 0%
Eos ([…], time 14 day): 1%
Fbg ([…], time 14 day): 214 mg/dL
Hb ([…], time 14 day): 14.5 g/dL
Ht ([…], time 14 day): 41.3%
Lym ([…], time 14 day): 79.2%
MCH ([…], time 14 day): 21.2 pg
MCHC ([…], time 14 day): 35.1%
MCV ([…], time 14 day): 60.4 fL
Mono ([…], time 14 day): 2.6%
Neu ([…], time 14 day): 16.2%
PT ([…], time 14 day): 12.5 s
Plat ([…], time 14 day): 107.7 x10_4/uL
RBC ([…], time 14 day): 684.4 x10_4/ul
Ret ([…], time 14 day): 4.6%
WBC ([…], time 14 day): 116.3 x10_2/uL
APTT ([…], time 28 day): 19.7 s
Bas ([…], time 28 day): 0%
Eos ([…], time 28 day): 1%
Fbg ([…], time 28 day): 231 mg/dL
Hb ([…], time 28 day): 15.1 g/dL
Ht ([…], time 28 day): 42.4%
Lym ([…], time 28 day): 81.2%
MCH ([…], time 28 day): 19.8 pg
MCHC ([…], time 28 day): 35.6%
MCV ([…], time 28 day): 55.6 fL
Mono ([…], time 28 day): 2.4%
Neu ([…], time 28 day): 14.6%
PT ([…], time 28 day): 12.6 s
Plat ([…], time 28 day): 105.8 x10_4/uL
RBC ([…], time 28 day): 764.8 x10_4/ul
Ret ([…], time 28 day): 3.2%
WBC ([…], time 28 day): 113.7 x10_2/uL
KIDNEY_L ([…], time 7 day): 1.1 g
KIDNEY_R ([…], time 7 day): 1.1 g
KIDNEY_TOTAL ([…], time 7 day): 2.2 g
KIDNEY_L ([…], time 14 day): 1.2 g
KIDNEY_R ([…], time 14 day): 1.2 g
KIDNEY_TOTAL ([…], time 14 day): 2.3 g
KIDNEY_L ([…], time 28 day): 1.4 g
KIDNEY_R ([…], time 28 day): 1.4 g
KIDNEY_TOTAL ([…], time 28 day): 2.7 g
LIVER ([…], time 7 day): 11.9 g
LIVER ([…], time 14 day): 13 g
LIVER ([…], time 28 day): 15 g
A/G ([…], time 7 day): 1.6
ALP ([…], time 7 day): 780.6 IU/L
ALT ([…], time 7 day): 31.8 IU/L
AST ([…], time 7 day): 63.8 IU/L
BUN ([…], time 7 day): 16.4 mg/dL
CRE ([…], time 7 day): 0.4 mg/dL
Ca ([…], time 7 day): 10.6 mg/dL
Cl ([…], time 7 day): 103.4 meq/L
DBIL ([…], time 7 day): 0.074 mg/dL
GLC ([…], time 7 day): 232 mg/dL
IP ([…], time 7 day): 7.2 mg/dL
K ([…], time 7 day): 3.7 meq/L
LDH ([…], time 7 day): 217.4 IU/L
Na ([…], time 7 day): 140.6 meq/L
PL ([…], time 7 day): 149.6 mg/dL
RALB ([…], time 7 day): 3.5 g/dL
TBIL ([…], time 7 day): 0.1 mg/dL
TC ([…], time 7 day): 72.8 mg/dL
TG ([…], time 7 day): 71 mg/dL
TP ([…], time 7 day): 5.7 g/dL
gamma-GTP ([…], time 7 day): 1.4 IU/L
A/G ([…], time 14 day): 1.5
ALP ([…], time 14 day): 842.8 IU/L
ALT ([…], time 14 day): 34 IU/L
AST ([…], time 14 day): 65.6 IU/L
BUN ([…], time 14 day): 16.8 mg/dL
CRE ([…], time 14 day): 0.5 mg/dL
Ca ([…], time 14 day): 10.5 mg/dL
Cl ([…], time 14 day): 103.4 meq/L
DBIL ([…], time 14 day): 0.1 mg/dL
GLC ([…], time 14 day): 203.8 mg/dL
IP ([…], time 14 day): 6.5 mg/dL
K ([…], time 14 day): 3.6 meq/L
LDH ([…], time 14 day): 196 IU/L
Na ([…], time 14 day): 141.4 meq/L
PL ([…], time 14 day): 153.6 mg/dL
RALB ([…], time 14 day): 3.5 g/dL
TBIL ([…], time 14 day): 0.2 mg/dL
TC ([…], time 14 day): 70.6 mg/dL
TG ([…], time 14 day): 133.4 mg/dL
TP ([…], time 14 day): 5.8 g/dL
gamma-GTP ([…], time 14 day): 1.2 IU/L
A/G ([…], time 28 day): 1.3
ALP ([…], time 28 day): 678.2 IU/L
ALT ([…], time 28 day): 38.8 IU/L
AST ([…], time 28 day): 65.8 IU/L
BUN ([…], time 28 day): 18 mg/dL
CRE ([…], time 28 day): 0.5 mg/dL
Ca ([…], time 28 day): 10.5 mg/dL
Cl ([…], time 28 day): 102.8 meq/L
DBIL ([…], time 28 day): 0.1 mg/dL
GLC ([…], time 28 day): 215 mg/dL
IP ([…], time 28 day): 6 mg/dL
K ([…], time 28 day): 3.6 meq/L
LDH ([…], time 28 day): 185.6 IU/L
Na ([…], time 28 day): 141.4 meq/L
PL ([…], time 28 day): 154 mg/dL
RALB ([…], time 28 day): 3.6 g/dL
TBIL ([…], time 28 day): 0.2 mg/dL
TC ([…], time 28 day): 71.6 mg/dL
TG ([…], time 28 day): 129.8 mg/dL
TP ([…], time 28 day): 6.3 g/dL
gamma-GTP ([…], time 28 day): 0.6 IU/L
